Earlier results as cited in article PMC10386743, “Application of Ligand- and Structure-Based Prediction Models for the Design of Alkylhydrazide-Based HDAC3 Inhibitors as Novel Anti-Cancer Compounds” (Pharmaceuticals, 2023).

Test system: recombinant human HDAC3
Settings: recombinant human HDAC3, Boc-Lys(acetyl)-AMC; supplement Ref. [46]

| pIC50 HDAC3 (HDAC3 experimental pIC50) | Compound |
| --- | --- |
| 9.55 | CCCNNC(=O)c1ccc(CNC(=O)c2cc3cc(OC)ccc3o2)cc1 [Compound 1] |
| 9.36 | CCCNNC(=O)c1ccc(CNC(=O)c2cc3ccccc3[nH]2)cc1 [Compound 4] |
| 9.21 | CCCNNC(=O)c1ccc(CNC(=O)c2cc3cc(Cl)ccc3o2)cc1 [Compound 5] |
| 9.18 | CCCNNC(=O)c1ccc(CNC(=O)c2cc3cc(Cl)ccc3[nH]2)cc1 [Compound 6] |
| 9.08 | CCCNNC(=O)c1ccc(CNC(=O)c2cc3cc(F)ccc3o2)cc1 [Compound 7] |
| 9.07 | C#CCOc1ccc2oc(C(=O)NCc3ccc(C(=O)NNCCC)cc3)cc2c1 [Compound 8] |
| 9.05 | CCCNNC(=O)c1ccc(CNC(=O)c2ccc3ccccc3n2)cc1 [Compound 9] |
| 8.99 | CCCNNC(=O)c1ccc(CNC(=O)c2ccc3cnccc3c2)cc1 [Compound 11] |
| 8.88 | CCCNNC(=O)c1ccc(CNC(=O)c2nc3ccccc3s2)cc1 [Compound 12] |
| 8.88 | CCCNNC(=O)c1ccc(CNC(=O)c2cc3cc(Br)ccc3[nH]2)cc1 [Compound 13] |
| 8.84 | CCCNNC(=O)c1ccc(CNC(=O)c2nc3ccccc3[nH]2)cc1 [Compound 14] |
| 8.83 | CCCNNC(=O)c1ccc(CNC(=O)c2cc3ccccc3cn2)cc1 [Compound 15] |
| 8.81 | CCCNNC(=O)c1ccc(CNC(=O)c2ccc3ccncc3c2)cc1 [Compound 16] |
| 8.79 | CCCNNC(=O)c1ccc(CNC(=O)c2cc3cc(F)ccc3[nH]2)cc1 [Compound 17] |
| 8.75 | CCCNNC(=O)c1ccc(CNC(=O)c2cnc3ccccc3c2)cc1 [Compound 18] |
| 8.69 | CCCNNC(=O)c1ccc(CNC(=O)c2cc3cnccc3cn2)cc1 [Compound 19] |
| 9.29 | CCCNNC(=O)c1ccc(CNC(=O)c2cc3cc(O)ccc3o2)cc1 [Compound 40] |
| 9.24 | CCCNNC(=O)c1ccc(CNC(=O)c2cc3cc(OC)ccc3[nH]2)cc1 [Compound 41] |
| 9.21 | CCCNNC(=O)c1ccc(CNC(=O)c2cc3cc(Br)ccc3o2)cc1 [Compound 42] |

| Compound | pIC50 HDAC3 (HDAC3 experimental pIC50) |
| --- | --- |
| CCCNNC(=O)c1ccc(CNC(=O)c2cc3ccccc3o2)cc1 [Compound 3] | 9.42 |

Same assay, conditions: recombinant human HDAC3, Boc-Lys(acetyl)-AMC; supplement prints Ref. [48]

| pIC50 HDAC3 (HDAC3 experimental pIC50) | Compound |
| --- | --- |
| 9.55 | CCCNNC(=O)/C=C/c1ccc(CNCCc2c(C)[nH]c3ccccc23)cc1 [Compound 2] |
| 8.21 | CCCNNC(=O)c1ccc(NCc2ccccc2)cc1 [Compound 22] |
| 7.70 | CCCNNC(=O)c1ccc(CNCCc2c(C)[nH]c3ccccc23)cc1 [Compound 26] |
| 7.61 | CCCNNC(=O)c1ccc(OCc2ccccc2)cc1 [Compound 27] |
| 7.01 | CCCNNC(=O)c1ccc(CNCc2ccccc2)cc1 [Compound 30] |
| 6.51 | COC(=O)CCNNC(=O)/C=C/c1ccc(CNCCc2c(C)[nH]c3ccccc23)cc1 [Compound 34] |
| 6.17 | CCCNNC(=O)c1cccc(CNCCc2c(C)[nH]c3ccccc23)c1 [Compound 36] |
| 7.90 | CCCNNC(=O)c1ccc(CN(CCc2c(C)[nH]c3ccccc23)C(=O)OC(C)(C)C)cc1 [Compound 43] |
| 7.78 | CCCNNC(=O)/C=C/c1ccc(CN(CCc2c(C)[nH]c3ccccc23)C(=O)OC(C)(C)C)cc1 [Compound 44] |
| 7.46 | Cc1[nH]c2ccccc2c1CCNCc1ccc(/C=C/C(=O)NNCCC#N)cc1 [Compound 45] |
| 7.31 | CCCNNC(=O)c1ccc(NC(=O)c2ccccc2)cc1 [Compound 46] |
| 7.11 | CCCNNC(=O)c1ccc(CN(Cc2ccccc2)C(=O)OC(C)(C)C)cc1 [Compound 49] |
| 5.30 | CCCNNC(=O)c1cccc(CN(CCc2c(C)[nH]c3ccccc23)C(=O)OC(C)(C)C)c1 [Compound 57] |
| 5.28 | Cc1[nH]c2ccccc2c1CCNCc1ccc(/C=C/C(=O)NNCCN)cc1 [Compound 59] |

Same assay, conditions: recombinant human HDAC3, Boc-Lys(acetyl)-AMC; supplement prints Ref. [50]

| pIC50 HDAC3 (HDAC3 experimental pIC50) | Compound |
| --- | --- |
| 9.02 | CCCNNC(=O)c1ccc(CNC(=O)/C=C/c2ccccc2)cc1 [Compound 10] |
| 8.46 | CCCNNC(=O)c1ccc(CNC(=O)c2ccccc2)cc1 [Compound 20] |
| 8.44 | CCCCNNC(=O)c1ccc(CNC(=O)/C=C/c2ccccc2)cc1 [Compound 21] |
| 8.07 | CCCCNNC(=O)c1ccc(CNC(=O)c2ccccc2)cc1 [Compound 23] |
| 7.73 | CCCCCNNC(=O)c1ccc(CNC(=O)c2ccccc2)cc1 [Compound 24] |
| 7.71 | CCNNC(=O)c1ccc(CNC(=O)/C=C/c2ccccc2)cc1 [Compound 25] |
| 7.49 | CCCCCNNC(=O)c1ccc(CNC(=O)/C=C/c2ccccc2)cc1 [Compound 28] |
| 7.40 | O=C(NCc1ccc(C(=O)NNCC2CC2)cc1)c1ccccc1 [Compound 29] |
| 6.80 | CCCCNNC(=O)c1ccc(OC)cc1 [Compound 31] |
| 6.73 | CCCCCCNNC(=O)c1ccc(CNC(=O)c2ccccc2)cc1 [Compound 32] |
| 6.53 | CCCCNNC(=O)/C=C/c1ccccc1 [Compound 33] |
| 6.25 | CCCCCCCNNC(=O)c1ccc(CNC(=O)c2ccccc2)cc1 [Compound 35] |
| 6.05 | CCCCNNC(=O)c1ccc2ccccc2c1 [Compound 37] |
| 6.04 | CCCCNNC(=O)c1cccs1 [Compound 38] |
| 5.81 | CCCCNNC(=O)c1cccnc1 [Compound 39] |
| 7.17 | CCCCNNC(=O)c1ccc(-c2ccccc2)cc1 [Compound 47] |
| 7.16 | O=C(NCc1ccc(C(=O)NNCCC(F)(F)F)cc1)c1ccccc1 [Compound 48] |
| 7.07 | O=C(NCc1ccc(C(=O)NNCC2CCC2)cc1)c1ccccc1 [Compound 50] |
| 6.73 | CCNNC(=O)c1ccc(CNC(=O)c2ccccc2)cc1 [Compound 51] |
| 6.51 | CCCCNNC(=O)c1ccc(Oc2ccccc2)cc1 [Compound 52] |
| 5.96 | CCCCCCCCNNC(=O)c1ccc(CNC(=O)c2ccccc2)cc1 [Compound 53] |
| 5.87 | CCCCNNC(=O)c1cc2ccccc2o1 [Compound 54] |
| 5.81 | C/C=C/CNNC(=O)c1ccc(CNC(=O)c2ccccc2)cc1 [Compound 55] |
| 5.72 | CCCCNNC(=O)CCc1ccccc1 [Compound 56] |
| 5.30 | CCCCNNC(=O)c1ccco1 [Compound 58] |
| < 5.00 | CCCCNNC(=O)c1cccc2ccccc12 [Compound 60] |
| < 5.00 | CC(C)NNC(=O)c1ccc(CNC(=O)c2ccccc2)cc1 [Compound 61] |
